18 substances from US20220226484A1, “THERAPEUTIC PEPTIDES” (COHBAR, INC., priority 2019, published 2022) can be followed below.

Positions of bridges follow the written chain, without caps; N, C: chain ends. Non-standard residues stand in square brackets, D forms with d. Primed or numbered codes have the meaning given here. Chains are numbered I, II in the order given. No end group written: not given here. PEG12′ = not defined here; Nle = CCCC[C@H](N)C(=O)O

One assay has as its system H4IIE Rat Hepatoma Cells. Nature of the assay: Insulin-dependent effect on glucose production by cultured rat liver cells. As to conditions: 24 hour; for Glucose Levels, MEAN % Control, +Insulin: peptide 10 μM + insulin 800 pM, percent of insulin (800 pM); for Glucose Levels, MEAN % Control, −Insulin: peptide 10 μM alone, percent of untreated control cells. The assay is classed as cell-based. The method in brief: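 H4IIE rat hepatoma cells were primed overnight in glucose-free DMEM containing 2 mM pyruvate and 10 mM lactate. They were then treated 24 h at 37 °C with peptide at 10 µM final (0.1% DMSO), with or without 800 pM insulin. Medium glucose was read by Amplex Red at 570 nm and expressed as % of untreated or insulin-only controls.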

The subject of a further assay is 3T3-L1 Mouse Adipocytes. Nature of the assay: Free fatty acid levels in cultured mouse adipocytes. As to conditions: peptide 10 μM, 1 nM isoproterenol, relative to isoproterenol treated cells. The format is cell-based. As to the method:
The effect of the peptides on fatty acid metabolism can be assessed using an assay of free fatty acid levels in cultured cells such as mouse adipocytes. Peptides were initially prepared as 10 mM stock in DMSO and used at a final concentration of 10 μM (0.1% DMSO). […] Mouse 3T3-L1 cells purchased from ZenBio were seeded at 3,000 cells per well in 96-well plates in Pre-adipocyte Medium (Zen-Bio) and grown to confluence at 37° C. in a humidified atmosphere of 5% CO2/95% air. Two days after confluence, cells were placed in Adipocyte Differentiation Medium (Zen-Bio) and cultured for three additional days at 37° C. in a humidified atmosphere of 5% CO2/95% air. The culture media was then replaced with Adipocyte Maintenance Medium (Zen-Bio) and the cells maintained for an additional 9-12 days at 37° C. in a humidified atmosphere of 5% CO2/95% air with partial medium replacement every other day. Following 12-15 days of differentiation, test peptides were added at a final concentration of 10 μM in 0.1% DMSO and incubated for 20-22 hours in Adipocyte Maintenance Medium at 37° C. in a humidified atmosphere of 5% CO2/95% air. After 20-22 hours, 1 nM isoproterenol was added to all wells except untreated controls and test peptides were replenished. Insulin at 100 nM was added to control wells. Cells were incubated for 3 hours in Assay Buffer (Zen-Bio) at 37° C. in a humidified atmosphere of 5% CO2/95% air. Free fatty acid concentrations in the media were determined using a Free Fatty Acid Assay kit (Zen-Bio) according to the manufacturer's instructions using a Cytation 3 plate reader at 540 nm (BioTek, Winooski, Vt.). Absorbance values were corrected for untreated background and expressed relative to isoproterenol treated cells. Treatment with isoproterenol (1 nM) alone was used as the free fatty acid level stimulatory control. The relative standard deviation of the isoproterenol control was <10%. […] Free fatty acid levels for insulin (100 nM) treatment were <5% of the isoproterenol control value.
The effect of the peptides on fatty acid metabolism was assessed using an assay of free fatty acid levels in cultured cells such as mouse adipocytes. Peptides were initially prepared as 10 mM stock in DMSO and used at a final concentration of 10 μM (0.1% DMSO). […] Mouse 3T3-L1 cells purchased from ZenBio were seeded at 3,000 cells per well in 96-well plates in Pre-adipocyte Medium (Zen-Bio) and grown to confluence at 37° C. in a humidified atmosphere of 5% CO2/95% air. Two days after confluence, cells were placed in Adipocyte Differentiation Medium (Zen-Bio) and cultured for three additional days at 37° C. in a humidified atmosphere of 5% CO2/95% air. The culture media was then replaced with Adipocyte Maintenance Medium (Zen-Bio) and the cells maintained for an additional 9-12 days at 37° C. in a humidified atmosphere of 5% CO2/95% air with partial medium replacement every other day. Following 12-15 days of differentiation, test peptides were added at a final concentration of 10 μM in 0.1% DMSO and incubated for 20-22 hours in Adipocyte Maintenance Medium at 37° C. in a humidified atmosphere of 5% CO2/95% air. After 20-22 hours, 1 nM isoproterenol was added to all wells except untreated controls and test peptides were replenished. Insulin at 100 nM was added to control wells. Cells were incubated for 3 hours in Assay Buffer (Zen-Bio) at 37° C. in a humidified atmosphere of 5% CO2/95% air. Free fatty acid concentrations in the media were determined using a Free Fatty Acid Assay kit (Zen-Bio) according to the manufacturer's instructions using a Cytation 3 plate reader at 540 nm (BioTek, Winooski, Vt.). Absorbance values were corrected for untreated background and expressed relative to isoproterenol treated cells. Treatment with isoproterenol (1 nM) alone was used as the free fatty acid level stimulatory control. The relative standard deviation of the isoproterenol control was <10%. […]

With MRVIRMCLGVGLLGDLAG [SEQ ID NO: 2], in the assay on H4IIE Rat Hepatoma Cells, the “Glucose Levels, MEAN % Control, +Insulin” value was found to be 79.7% and the “Glucose Levels, MEAN % Control, −Insulin” value amounted to 121%. Besides, the “Free Fatty Acid Levels, MEAN % ISO” value with 3T3-L1 Mouse Adipocytes (Table 6) is recorded as 26.4%. For the same substance, in the assay on 3T3-L1 Mouse Adipocytes (Table 12), the “Free Fatty Acid Levels, MEAN % ISO” value was found to be 26%.
As to “R(dA)IR(Nle)SLNVGLLGEL(dA) (R[dA]IR[Nle]SLNVGLLGEL[dA]) [SEQ ID NO: 15]”, in the assay on H4IIE Rat Hepatoma Cells, the “Glucose Levels, MEAN % Control, +Insulin” value was 95.2% and the “Glucose Levels, MEAN % Control, −Insulin” value stood at 94.3%. In the assay on 3T3-L1 Mouse Adipocytes (Table 12), the “Free Fatty Acid Levels, MEAN % ISO” value stood at 101%.
For “RVIR(Nle)CLNVGLLGEL(dA)G (RVIR[Nle]CLNVGLLGEL[dA]G) [SEQ ID NO: 6]” the same measures were 82.5%, 109% and 78%.
For the substance “RVIR(Nle)SLNVGLEGEL(dA) (RVIR[Nle]SLNVGLEGEL[dA]) [SEQ ID NO: 14]”, in the assay with H4IIE Rat Hepatoma Cells, the “Glucose Levels, MEAN % Control, +Insulin” value is reported as 97.8% and the “Glucose Levels, MEAN % Control, −Insulin” value was found to be 104%. The “Free Fatty Acid Levels, MEAN % ISO” value in the assay with 3T3-L1 Mouse Adipocytes (Table 12) stood at 64%.
Regarding “RVIR(Nle)SLNVGLLGEL(dA)G (RVIR[Nle]SLNVGLLGEL[dA]G) [SEQ ID NO: 8]”, in the assay on H4IIE Rat Hepatoma Cells, the “Glucose Levels, MEAN % Control, +Insulin” value amounted to 63.5% and the “Glucose Levels, MEAN % Control, −Insulin” value came out at 105%. In the assay on 3T3-L1 Mouse Adipocytes (Table 12), the “Free Fatty Acid Levels, MEAN % ISO” value is reported as 64%.
For the substance “RVIRMCLGVGLLGDL(dA)G (RVIRMCLGVGLLGDL[dA]G) [SEQ ID NO: 4]”, in the assay on H4IIE Rat Hepatoma Cells, the “Glucose Levels, MEAN % Control, +Insulin” value is listed as 54.3% and the “Glucose Levels, MEAN % Control, −Insulin” value is reported as 119%. Moreover, in the assay with 3T3-L1 Mouse Adipocytes (Table 6), the “Free Fatty Acid Levels, MEAN % ISO” value stood at 20.1%. Moreover, the “Free Fatty Acid Levels, MEAN % ISO” value in the assay with 3T3-L1 Mouse Adipocytes (Table 12) was found to be 20%.
As for “RVIRMCLGVGLLGDLAG (disulfide I:6-II:6) [SEQ ID NO: 26]”, in the assay with H4IIE Rat Hepatoma Cells, the “Glucose Levels, MEAN % Control, +Insulin” value was found to be 21% and the “Glucose Levels, MEAN % Control, −Insulin” value was found to be 114%. In addition, the “Free Fatty Acid Levels, MEAN % ISO” value in the assay on 3T3-L1 Mouse Adipocytes (Table 12) turned out to be 39%.
On to RVIRMCLGVGLLGDLAG [SEQ ID NO: 3], for which, in the assay with H4IIE Rat Hepatoma Cells, the “Glucose Levels, MEAN % Control, +Insulin” value is on record as 39.9% and the “Glucose Levels, MEAN % Control, −Insulin” value came out at 121%. For the same substance, the “Free Fatty Acid Levels, MEAN % ISO” value with 3T3-L1 Mouse Adipocytes (Table 6) amounted to 19.7%. For the same substance, the “Free Fatty Acid Levels, MEAN % ISO” value with 3T3-L1 Mouse Adipocytes (Table 12) is given as 20%.
Consider “RVIRMCLGVGLLGDLAGK{PEG12} (RVIRMCLGVGLLGDLAGK(PEG12′)) [SEQ ID NO: 17]”, for which, in the assay on H4IIE Rat Hepatoma Cells, the “Glucose Levels, MEAN % Control, +Insulin” value is recorded as 18.8% and the “Glucose Levels, MEAN % Control, −Insulin” value was 105%. Further, in the assay on 3T3-L1 Mouse Adipocytes (Table 12), the “Free Fatty Acid Levels, MEAN % ISO” value stood at 31%.
In the case of “RVIRMCLGVGLLGDLAGK{PEG12} (chain 1 RVIRMCLGVGLLGDLAGK(PEG12′); chain 2 RVIRMCLGVGLLGDLAGK(PEG12′); disulfide I:6-II:6) [SEQ ID NO: 28]”, in the assay with H4IIE Rat Hepatoma Cells, the “Glucose Levels, MEAN % Control, +Insulin” value stood at 23.9% and the “Glucose Levels, MEAN % Control, −Insulin” value stood at 92.0%.
As to “RVIRMCLNNGLLGEL(dA)G (RVIRMCLNNGLLGEL[dA]G) [SEQ ID NO: 9]”, in the assay on H4IIE Rat Hepatoma Cells, the “Glucose Levels, MEAN % Control, +Insulin” value amounted to 19.1% and the “Glucose Levels, MEAN % Control, −Insulin” value is given as 103%. Moreover, the “Free Fatty Acid Levels, MEAN % ISO” value in the assay with 3T3-L1 Mouse Adipocytes (Table 12) was 30%.
As to “RVIRMCLNNGLNGEL(dA)E (RVIRMCLNNGLNGEL[dA]E) [SEQ ID NO: 23]”, in the assay with H4IIE Rat Hepatoma Cells, the “Glucose Levels, MEAN % Control, +Insulin” value is recorded as 3.1% and the “Glucose Levels, MEAN % Control, −Insulin” value was 36%. Besides, the “Free Fatty Acid Levels, MEAN % ISO” value in the assay on 3T3-L1 Mouse Adipocytes (Table 12) came to 61%.
In the same order, the values of “RVIRMCLNVGLLGEL(dA)E (RVIRMCLNVGLLGEL[dA]E) [SEQ ID NO: 12]” are 57.8%, 107% and 22%.
In the case of “RVIRMCLNVGLLGEL(dA)G [SEQ ID NO: 5] (RVIRMCLNVGLLGEL[dA]G)”, the “Glucose Levels, MEAN % Control, +Insulin” value with H4IIE Rat Hepatoma Cells (listed as 5) came out at 54.5%. In addition, the “Glucose Levels, MEAN % Control, −Insulin” value with H4IIE Rat Hepatoma Cells (listed as 5) amounted to 117%. Further, the figures for the “Free Fatty Acid Levels, MEAN % ISO” value with 3T3-L1 Mouse Adipocytes (Table 6) and in the assay on 3T3-L1 Mouse Adipocytes (Table 12) were 18.3% and 18%, respectively.
With “RVIRMCLNVGLNGEL(dA)G (RVIRMCLNVGLNGEL[dA]G) [SEQ ID NO: 11]”, in the assay on H4IIE Rat Hepatoma Cells, the “Glucose Levels, MEAN % Control, +Insulin” value worked out at 32.7% and the “Glucose Levels, MEAN % Control, −Insulin” value is 105%. Also, the “Free Fatty Acid Levels, MEAN % ISO” value in the assay with 3T3-L1 Mouse Adipocytes (Table 12) came to 36%.
“RVIRMCLNVGNLGEL(dA)G (RVIRMCLNVGNLGEL[dA]G) [SEQ ID NO: 10]”: in the assay on H4IIE Rat Hepatoma Cells, the “Glucose Levels, MEAN % Control, +Insulin” value was found to be 38% and the “Glucose Levels, MEAN % Control, −Insulin” value was 101%. In addition, the “Free Fatty Acid Levels, MEAN % ISO” value in the assay on 3T3-L1 Mouse Adipocytes (Table 12) turned out to be 29%.
Regarding “RVIRMSLNVGLEGEL(dA) (RVIRMSLNVGLEGEL[dA]) [SEQ ID NO: 13]”, in the assay on H4IIE Rat Hepatoma Cells, the “Glucose Levels, MEAN % Control, +Insulin” value came to 46.8% and the “Glucose Levels, MEAN % Control, −Insulin” value is recorded as 71.4%. Further, the “Free Fatty Acid Levels, MEAN % ISO” value with 3T3-L1 Mouse Adipocytes (Table 12) was 71%.
Consider “RVIRMSLNVGLLGEL(dA)G (RVIRMSLNVGLLGEL[dA]G) [SEQ ID NO: 7]”, for which, in the assay with H4IIE Rat Hepatoma Cells, the “Glucose Levels, MEAN % Control, +Insulin” value was 74.4% and the “Glucose Levels, MEAN % Control, −Insulin” value stood at 89.2%. Besides, the “Free Fatty Acid Levels, MEAN % ISO” value with 3T3-L1 Mouse Adipocytes (Table 12) turned out to be 77%.
